Source: ChEMBL document CHEMBL1201862, “PubChem BioAssay data set” (2004)
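The compound was tested at five concentrations on cells cultured in 96-well plates, with a 48-hour exposure period. Abbreviation: GI50, concentration required for 50% inhibition of growth.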 Active and inactive are the calls of the source. Rule as the data show it: active = GI50 up to about 1.1 µM and inactive = higher.

How the values were obtained:
Experiment in all cases: NCI tumour cell line growth inhibition, 48 h
786-0 = system: 786-0
A498 = system: A498
A549 = system: A549
ACHN = system: ACHN
CAKI-1 = system: CAKI-1
CCRF-CEM = system: CCRF-CEM
COLO 205 = system: COLO 205
DLD-1 = system: DLD-1
DMS-114 = system: DMS-114
DMS-273 = system: DMS-273
EKVX = system: EKVX
HCC 2998 = system: HCC 2998
HCT-116 = system: HCT-116
HCT-15 = system: HCT-15
HL-60 = system: HL-60
HOP-18 = system: HOP-18
HOP-62 = system: HOP-62
HOP-92 = system: HOP-92
HT-29 = system: HT-29
IGROV-1 = system: IGROV-1
K562 = system: K562
KM-20L2 = system: KM-20L2
KM12 = system: KM12
LOX IMVI = system: LOX IMVI
LXFL 529 = system: LXFL 529
M14 = system: M14
M19-MEL = system: M19-MEL
MOLT-4 = system: MOLT-4
Malme-3M = system: Malme-3M
NCI-H226 = system: NCI-H226
NCI-H23 = system: NCI-H23
NCI-H460 = system: NCI-H460
NCI-H522 = system: NCI-H522
OVCAR-3 = system: OVCAR-3
OVCAR-4 = system: OVCAR-4
OVCAR-5 = system: OVCAR-5
OVCAR-8 = system: OVCAR-8
RPMI-8226 = system: RPMI-8226
RXF 393 = system: RXF 393
RXF 631 = system: RXF 631
SF-268 = system: SF-268
SF-295 = system: SF-295
SF-539 = system: SF-539
SK-MEL-2 = system: SK-MEL-2
SK-MEL-5 = system: SK-MEL-5
SK-OV-3 = system: SK-OV-3
SN12C = system: SN12C
SNB-19 = system: SNB-19
SNB-75 = system: SNB-75
SNB-78 = system: SNB-78
SW-620 = system: SW-620
TK-10 = system: TK-10
U-251 = system: U-251
UACC-257 = system: UACC-257
UACC-62 = system: UACC-62
UO-31 = system: UO-31
XF498 = system: XF498
SK-MEL-28 = system: SK-MEL-28
SR = system: SR

N#Cc1c(C(N)=O)ncn1Cc1ccccc1
GI50 (786-0): > 100 µM (inactive) | GI50 (A498): > 100 µM (inactive) | GI50 (A549): > 100 µM (inactive) | GI50 (ACHN): > 100 µM (inactive) | GI50 (CAKI-1): > 100 µM (inactive) | GI50 (CCRF-CEM): > 100 µM (inactive) | GI50 (COLO 205): > 100 µM (inactive) | GI50 (DLD-1): > 100 µM (inactive) | GI50 (DMS-114): > 100 µM (inactive) | GI50 (DMS-273): > 100 µM (inactive) | GI50 (EKVX): > 100 µM (inactive) | GI50 (HCC 2998): > 100 µM (inactive) | GI50 (HCT-116): > 100 µM (inactive) | GI50 (HCT-15): > 100 µM | GI50 (HL-60): > 100 µM (inactive) | GI50 (HOP-18): > 100 µM (inactive) | GI50 (HOP-62): > 100 µM (inactive) | GI50 (HOP-92): > 100 µM (inactive) | GI50 (HT-29): > 100 µM (inactive) | GI50 (IGROV-1): > 100 µM (inactive) | GI50 (K562): > 100 µM (inactive) | GI50 (KM-20L2): > 100 µM (inactive) | GI50 (KM12): > 100 µM (inactive) | GI50 (LOX IMVI): > 100 µM (inactive) | GI50 (LXFL 529): > 100 µM (inactive) | GI50 (M14): > 100 µM (inactive) | GI50 (M19-MEL): > 100 µM (inactive) | GI50 (MOLT-4): > 100 µM (inactive) | GI50 (Malme-3M): > 100 µM (inactive) | GI50 (NCI-H226): > 100 µM (inactive) | GI50 (NCI-H23): > 100 µM (inactive) | GI50 (NCI-H460): > 100 µM (inactive) | GI50 (NCI-H522): > 100 µM (inactive) | GI50 (OVCAR-3): > 100 µM (inactive) | GI50 (OVCAR-4): > 100 µM (inactive) | GI50 (OVCAR-5): > 100 µM (inactive) | GI50 (OVCAR-8): > 100 µM (inactive) | GI50 (RPMI-8226): > 100 µM (inactive) | GI50 (RXF 393): > 100 µM (inactive) | GI50 (RXF 631): > 100 µM (inactive) | GI50 (SF-268): > 100 µM (inactive) | GI50 (SF-295): > 100 µM (inactive) | GI50 (SF-539): > 100 µM (inactive) | GI50 (SK-MEL-2): > 100 µM (inactive) | GI50 (SK-MEL-5): > 100 µM (inactive) | GI50 (SK-OV-3): > 100 µM (inactive) | GI50 (SN12C): > 100 µM (inactive) | GI50 (SNB-19): > 100 µM (inactive) | GI50 (SNB-75): > 100 µM (inactive) | GI50 (SNB-78): > 100 µM (inactive) | GI50 (SW-620): > 100 µM (inactive) | GI50 (TK-10): > 100 µM (inactive) | GI50 (U-251): > 100 µM (inactive) | GI50 (UACC-257): > 100 µM (inactive) | GI50 (UACC-62): > 100 µM (inactive) | GI50 (UO-31): > 100 µM (inactive) | GI50 (XF498): > 100 µM (inactive)

Cc1ccc(-c2nnc3s/c(=C\c4ccc(N(C)C)cc4)c(=O)n23)cc1
GI50 (786-0): > 100 µM (inactive) | GI50 (A498): 89.9 µM (inactive) | GI50 (A549): > 100 µM (inactive) | GI50 (ACHN): > 100 µM (inactive) | GI50 (CAKI-1): > 100 µM (inactive) | GI50 (CCRF-CEM): > 100 µM (inactive) | GI50 (COLO 205): > 100 µM (inactive) | GI50 (DLD-1): > 100 µM (inactive) | GI50 (DMS-114): > 100 µM (inactive) | GI50 (DMS-273): > 100 µM (inactive) | GI50 (EKVX): > 100 µM (inactive) | GI50 (HCC 2998): > 100 µM (inactive) | GI50 (HCT-116): > 100 µM (inactive) | GI50 (HL-60): > 100 µM (inactive) | GI50 (HOP-18): > 100 µM (inactive) | GI50 (HOP-62): > 100 µM (inactive) | GI50 (HOP-92): > 100 µM (inactive) | GI50 (IGROV-1): > 100 µM (inactive) | GI50 (K562): > 10 µM (inactive) | GI50 (KM-20L2): > 100 µM (inactive) | GI50 (KM12): > 100 µM (inactive) | GI50 (LOX IMVI): > 100 µM (inactive) | GI50 (LXFL 529): > 100 µM (inactive) | GI50 (M14): > 100 µM (inactive) | GI50 (M19-MEL): > 100 µM (inactive) | GI50 (MOLT-4): > 100 µM (inactive) | GI50 (Malme-3M): > 100 µM (inactive) | GI50 (NCI-H226): > 100 µM (inactive) | GI50 (NCI-H23): > 100 µM (inactive) | GI50 (NCI-H460): > 100 µM (inactive) | GI50 (NCI-H522): > 100 µM (inactive) | GI50 (OVCAR-3): > 100 µM (inactive) | GI50 (OVCAR-4): > 100 µM (inactive) | GI50 (OVCAR-5): > 100 µM (inactive) | GI50 (OVCAR-8): > 100 µM (inactive) | GI50 (RPMI-8226): > 100 µM (inactive) | GI50 (RXF 393): > 100 µM (inactive) | GI50 (RXF 631): > 100 µM (inactive) | GI50 (SF-268): > 100 µM (inactive) | GI50 (SF-295): > 100 µM (inactive) | GI50 (SF-539): > 100 µM (inactive) | GI50 (SK-MEL-28): > 100 µM (inactive) | GI50 (SK-MEL-2): > 100 µM (inactive) | GI50 (SK-MEL-5): > 100 µM (inactive) | GI50 (SK-OV-3): > 100 µM (inactive) | GI50 (SN12C): > 100 µM (inactive) | GI50 (SNB-19): > 100 µM (inactive) | GI50 (SNB-75): 65.2 µM (inactive) | GI50 (SNB-78): > 100 µM (inactive) | GI50 (SW-620): > 100 µM (inactive) | GI50 (TK-10): > 100 µM (inactive) | GI50 (U-251): > 100 µM (inactive) | GI50 (UACC-257): 11.7 µM (inactive) | GI50 (UACC-62): > 100 µM (inactive) | GI50 (UO-31): > 100 µM (inactive) | GI50 (XF498): > 100 µM (inactive)

COC(=O)c1ncc2c(=O)[nH]c3ccccc3c2c1C(=O)OC
GI50 (786-0): > 100 µM (inactive) | GI50 (A498): > 100 µM (inactive) | GI50 (A549): > 100 µM (inactive) | GI50 (ACHN): > 100 µM (inactive) | GI50 (CAKI-1): > 100 µM (inactive) | GI50 (CCRF-CEM): > 100 µM (inactive) | GI50 (DLD-1): > 100 µM (inactive) | GI50 (DMS-114): > 100 µM (inactive) | GI50 (DMS-273): > 100 µM (inactive) | GI50 (EKVX): > 100 µM (inactive) | GI50 (HCC 2998): > 100 µM (inactive) | GI50 (HCT-116): > 100 µM (inactive) | GI50 (HCT-15): > 100 µM | GI50 (HL-60): > 100 µM (inactive) | GI50 (HOP-18): > 100 µM (inactive) | GI50 (HOP-62): > 100 µM (inactive) | GI50 (HOP-92): > 100 µM (inactive) | GI50 (HT-29): > 100 µM (inactive) | GI50 (IGROV-1): > 100 µM (inactive) | GI50 (K562): > 100 µM (inactive) | GI50 (KM-20L2): > 100 µM (inactive) | GI50 (KM12): > 100 µM (inactive) | GI50 (LOX IMVI): > 100 µM (inactive) | GI50 (LXFL 529): > 100 µM (inactive) | GI50 (M14): > 100 µM (inactive) | GI50 (M19-MEL): > 100 µM (inactive) | GI50 (MOLT-4): > 100 µM (inactive) | GI50 (Malme-3M): > 100 µM (inactive) | GI50 (NCI-H226): > 100 µM (inactive) | GI50 (NCI-H23): > 100 µM (inactive) | GI50 (NCI-H460): 22 µM (inactive) | GI50 (OVCAR-3): > 100 µM (inactive) | GI50 (OVCAR-4): > 100 µM (inactive) | GI50 (OVCAR-5): > 100 µM (inactive) | GI50 (OVCAR-8): > 100 µM (inactive) | GI50 (RPMI-8226): > 100 µM (inactive) | GI50 (RXF 393): > 100 µM (inactive) | GI50 (RXF 631): > 100 µM (inactive) | GI50 (SF-268): > 100 µM (inactive) | GI50 (SF-295): > 100 µM (inactive) | GI50 (SF-539): > 100 µM (inactive) | GI50 (SK-MEL-28): > 100 µM (inactive) | GI50 (SK-MEL-2): > 100 µM (inactive) | GI50 (SK-MEL-5): > 100 µM (inactive) | GI50 (SN12C): > 100 µM (inactive) | GI50 (SNB-19): > 100 µM (inactive) | GI50 (SNB-75): > 100 µM (inactive) | GI50 (SNB-78): > 100 µM (inactive) | GI50 (SR): > 100 µM (inactive) | GI50 (SW-620): > 100 µM (inactive) | GI50 (TK-10): > 100 µM (inactive) | GI50 (UACC-257): > 100 µM (inactive) | GI50 (UACC-62): > 100 µM (inactive) | GI50 (UO-31): > 100 µM (inactive) | GI50 (XF498): > 100 µM (inactive)
